Source: patent US10836763B2, “5 to 7 membered heterocyclic amides as JAK inhibitors” (priority 2018, dated 2020)

Experiments:
[1] = target: JAK2 (Homo sapiens (Human), UniProt O60674); experiment: Biochemical JAK kinase assay (LanthaScreen), JAK2
Procedure: (§1) Assay 1: Biochemical JAK Kinase Assays
(§2) A panel of four LanthaScreen JAK biochemical assays (JAK1, 2, 3 and Tyk2) were carried in a common kinase reaction buffer (50 mM HEPES, pH 7.5, 0.01% Brij-35, 10 mM MgCl2, and 1 mM EGTA). Recombinant GST-tagged JAK enzymes and a GFP-tagged STAT1 peptide substrate were obtained from Life Technologies.
(§3) Serially diluted compounds were pre-incubated with each of the four JAK enzymes and the substrate in white 384-well microplates (Corning) at ambient temperature for 1 h. ATP was subsequently added to initiate the kinase reactions in 10 μL total volume, with 1% DMSO. […] Kinase reactions were allowed to proceed for 1 hour at ambient temperature before a 10 μL preparation of EDTA (10 mM final concentration) and Tb-anti-pSTAT1 (pTyr701) antibody (Life Technologies, 2 nM final concentration) in TR-FRET dilution buffer (Life Technologies) was added. The plates were allowed to incubate at ambient temperature for 1 h before being read on the EnVision reader (Perkin Elmer). Emission ratio signals (520 nm/495 nm) were recorded and utilized to calculate the percent inhibition values based on DMSO and background controls.
(§4) For dose-response analysis, percent inhibition data were plotted vs. compound concentrations, and IC50 values were determined from a 4-parameter robust fit model with the Prism software (GraphPad Software). Results were expressed as pIC50 (negative logarithm of IC50) and subsequently converted to pKi (negative logarithm of dissociation constant, Ki) using the Cheng-Prusoff equation.

[2] = Lung S9 metabolism; assay type: in vitro ADME, human; conditions: for Compound Remaining at 60 min (%) / microsomal CLint at 1 µM: human lung S9, 1 μM compound, 1 mg/mL S9 protein, NADPH and PAPS; for microsomal CLint at 1 µM: lung S9 fraction, pH 7.4, read-out: Clearance; for Sulfate Appearance: qualitative, O-sulfate metabolite peak in human lung S9
Procedure: Assay 5: Lung S9 Metabolism […] Lung S9 fractions from human (lot 1410245) were purchased from XenoTech LLC (Lenexa, Kans.). NADPH (Sigma Aldrich, N1630) and 3-phosphoadenosine 5-phosphosulfate (PAPS) (Sigma Aldrich, A1651) were purchased from Sigma Aldrich (St. Louis, Mo.). Acetonitrile and water were obtained from VWR (Radnor, Pa.) and were of HPLC grade or better. Raloxifene and formic acid was purchased from Sigma Aldrich (St. Louis, Mo.). Lung S9 incubations were performed in a water bath at 37° C. in a 96-well polypropylene plate. […] All samples were centrifuged at 2250 g for 10 minutes at 5° C. Supernatant (50 μL) was taken from the centrifuged samples and diluted into 100 μL HPLC water containing internal standard. […] Mobile Phase A consisted of Water+0.2% formic acid and Mobile Phase B consisted of acetonitrile+0.2% formic acid. Peak integration was accomplished using Gubbs GMSU software (Gubbs Inc., Alpharetta, Ga.). For each sample, peak area ratios were calculated by dividing the analyte peak area by the internal standard peak area. […] Determination of sulfate metabolite formation was made qualitatively by observation of early-eluting peak in the parent ion channel which, based on historical internal data, corresponded to the O-sulfate metabolite of each parent compound.

[3] = target: Tyk2 (Homo sapiens (Human), UniProt P29597); experiment: Biochemical JAK kinase assay (LanthaScreen), Tyk2
Procedure: as §1, §2, §3, §4

[4] = system: TSLP-evoked TARC release in human peripheral blood mononuclear cells; experiment: Inhibition of TSLP-evoked TARC release in human peripheral blood mononuclear cells; assay type: cell-based; conditions: PBMC from 3 to 5 donors, TSLP 10 ng/mL, 48 hours, TARC ELISA, read-out: pIC50 ± st. dev., inhibition of TSLP-evoked TARC release (converted)
Source text: Assay 4: Inhibition of TSLP-Evoked TARC Release in Human Peripheral Blood Mononuclear Cells
Thymic stromal lymphopoietin (TSLP) and thymus and activation-regulated chemokine (TARC) are overexpressed in asthmatic airways, and correlate with disease severity. In the lungs, TSLP may be released by bronchial epithelial cells in response to allergens and viral infections. TSLP signals through an IL-7Rα/TSLPR heterodimer found in a broad range of tissues and cell types, including epithelial cells, endothelial cells, neutrophils, macrophages, and mast cells. The binding of TSLP to its receptor induces a conformational change that activates JAK1 and JAK2 to phosphorylate various transcription factors, including STAT3 and STAT5. In immune cells, this triggers a cascade of intracellular events that result in cell proliferation, anti-apoptosis, dendritic cell migration, and production of Th2 cytokines and chemokines. In peripheral blood mononuclear cells (PBMC), TSLP has a proinflammatory effect by activating myeloid dendritic cells to attract and stimulate T cells, a process mediated by the chemoattractant TARC.
The potencies of the test compounds were measured for inhibition of TARC release.
PBMC aliquots (previously isolated from whole blood and frozen in aliquots at −80° C.) from 3 to 5 donors were thawed at 37° C. and added dropwise to 40 mL pre-warmed, sterile-filtered, complete RPMI media in 50 mL Falcon tubes. Cells were pelleted and resuspended in complete media at 2.24×10^6 cells/mL. Cells were seeded at […] (190,000 cells) per well in a tissue culture treated 96-well flat bottom microplate. Cells were allowed to rest for 1 hour at 37° C. with 5% CO2.
Compounds were received as 10 mM stock solutions in DMSO. 3.7-fold serial dilutions were performed to generate 9 concentrations of test compound in DMSO at 300× the final assay test concentration. […] After the 1 hour rest period, 95 µL of 2× compound was added to each well of PBMC, for a final assay concentration range of 33.33 μM to […]. 95 μL of 0.2% DMSO in complete media was added to the untreated control wells. Cells were pre-treated with compound for 1 hour at 37° C. with 5% CO2 prior to stimulation.
Recombinant human TSLP protein was reconstituted at 10 μg/mL in sterile DPBS with 0.1% BSA and stored in aliquots at −20° C. Immediately prior to use, an aliquot was thawed and prepared at 20× the final assay concentration in complete media. 10 μL of 20×TSLP was added to each well of PBMC, for a final assay concentration of 10 ng/mL. 10 μL of complete media was added to the unstimulated control wells. Cells were stimulated in the presence of compound for 48 hours at 37° C. with 5% CO2.
Following stimulation, the cell culture supernatants were harvested and TARC levels were detected by enzyme-linked immunosorbent assay (ELISA), using Human CCL17/TARC Quantikine ELISA Kit (R&D Systems # DDN00) according to the manufacturer's instructions.
For dose response analysis, the log [test compound (M)] was plotted versus the percent response values for each donor, and IC50 values were determined using a nonlinear regression analysis with GraphPad Prism Software using the 4-parameter sigmoidal dose-response algorithm with variable slope. Data are expressed as mean pIC50 (negative decadic logarithm IC50) values calculated from pIC50 values of individual donors and rounded to one decimal place.

[5] = system: IL-2 stimulated STAT5 phosphorylation in Tall-1 human T cell line; experiment: Inhibition of IL-2 stimulated pSTAT5 in Tall-1 T cells; assay type: cell-based; conditions: TALL-1, 0.5 h, IL-2 300 ng/mL, 30 min, pSTAT5 AlphaLisa, read-out: Tall-1 pIC50 (converted)
Procedure: Assay 2: Inhibition of IL-2 Stimulated pSTAT5 in Tall-1 T Cells
The potency of test compounds for inhibition of interleukin-2 (IL-2) stimulated STAT5 phosphorylation was measured in the Tall-1 human T cell line (DSMZ) using AlphaLisa.
Phosphorylated STAT5 was measured via the AlphaLISA SureFire Ultra pSTAT5 (Tyr694/699) kit (PerkinElmer).
Compounds were serially diluted in DMSO and dispensed acoustically to empty wells. Assay media (phenol red-free DMEM (Life Technologies) supplemented with 10% FBS (ATCC)) was dispensed (4 μL/well) and plates shaken at 900 rpm for 10 mins. Cells were seeded at 45,000 cells/well in assay media (4 μL/well), and incubated at 37° C., 5% CO2 for 1 hour, followed by the addition of IL-2 (R&D Systems; final concentration 300 ng/mL) in pre-warmed assay media (4 μL) for 30 minutes. […] The lysate was shaken at 900 rpm for 10 minutes at room temperature (RT). Phosphorylated STAT5 was measured via the pSTAT5 AlphaLisa kit (PerkinElmer). Freshly prepared acceptor bead mixture was dispensed onto lysate (5 μL) under green filtered <100 lux light. Plates were shaken at 900 rpm for 2 mins, briefly spun down, and incubated for 2 hrs at RT in the dark. Donor beads were dispensed (5 μL) under green filtered <100 lux light. Plates were shaken at 900 rpm for 2 minutes, briefly spun down, and incubated overnight at RT in the dark. Luminescence was measured with excitation at 689 nm and emission at 570 nm using an EnVision plate reader (PerkinElmer) under green filtered <100 lux light.
To determine the inhibitory potency of test compounds in response to IL-2, the average emission intensity of beads bound to pSTAT5 was measured in a human T cell line. IC50 values were determined from analysis of the inhibition curves of signal intensity versus compound concentration. Data are expressed as pIC50 (negative decadic logarithm IC50) values (mean±standard deviation).

[6] = target: JAK1 (Homo sapiens (Human), UniProt P23458); experiment: Co-crystal structure with JAK1; conditions: resolution of 2.28 Å
Source text: A co-crystal structure was obtained of compound D-1 bound to human JAK1 at a resolution of 2.28 Å. […] Seven specific hydrogen bonding interactions were identified based upon a distance of 3.5 Å or less between donor and acceptor atoms. Of particular note, a hydrogen bonding interaction was identified between the carbonyl of the exocyclic amide of compound D-1 and the sidechain of Arg879 of JAK1. A similar interaction can be expected for the compounds of the invention.

Chain of Tyk2 (P29597 whole entry): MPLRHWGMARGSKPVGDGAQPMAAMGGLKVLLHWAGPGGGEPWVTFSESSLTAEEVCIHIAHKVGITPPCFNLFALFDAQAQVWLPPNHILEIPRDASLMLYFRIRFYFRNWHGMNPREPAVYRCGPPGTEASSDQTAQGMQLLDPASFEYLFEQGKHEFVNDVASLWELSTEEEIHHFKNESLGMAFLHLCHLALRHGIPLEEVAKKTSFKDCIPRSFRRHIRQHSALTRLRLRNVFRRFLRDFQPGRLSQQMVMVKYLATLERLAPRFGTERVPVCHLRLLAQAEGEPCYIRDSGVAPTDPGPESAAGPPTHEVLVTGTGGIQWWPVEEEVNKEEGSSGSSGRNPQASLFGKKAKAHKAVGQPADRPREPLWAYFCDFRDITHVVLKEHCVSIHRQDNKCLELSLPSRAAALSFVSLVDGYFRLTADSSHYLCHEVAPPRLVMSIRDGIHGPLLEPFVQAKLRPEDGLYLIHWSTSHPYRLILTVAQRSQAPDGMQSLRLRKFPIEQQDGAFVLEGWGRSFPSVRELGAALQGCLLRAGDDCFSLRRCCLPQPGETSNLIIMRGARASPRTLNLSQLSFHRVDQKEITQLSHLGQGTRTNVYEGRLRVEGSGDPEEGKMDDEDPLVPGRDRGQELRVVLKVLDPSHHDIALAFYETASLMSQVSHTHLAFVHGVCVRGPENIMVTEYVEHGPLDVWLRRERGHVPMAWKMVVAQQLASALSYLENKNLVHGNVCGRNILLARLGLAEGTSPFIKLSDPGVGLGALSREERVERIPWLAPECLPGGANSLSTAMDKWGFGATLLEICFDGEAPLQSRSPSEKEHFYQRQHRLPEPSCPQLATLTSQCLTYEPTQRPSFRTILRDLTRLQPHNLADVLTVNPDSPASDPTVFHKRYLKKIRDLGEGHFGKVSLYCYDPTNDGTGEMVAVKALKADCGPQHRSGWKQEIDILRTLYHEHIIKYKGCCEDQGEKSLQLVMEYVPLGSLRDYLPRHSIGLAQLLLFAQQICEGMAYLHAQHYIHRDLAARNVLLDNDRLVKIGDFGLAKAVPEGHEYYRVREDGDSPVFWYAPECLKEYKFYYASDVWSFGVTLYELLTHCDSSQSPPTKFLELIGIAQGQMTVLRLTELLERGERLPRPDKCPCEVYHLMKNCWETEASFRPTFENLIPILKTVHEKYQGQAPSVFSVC
Chain of JAK1 (P23458 whole entry): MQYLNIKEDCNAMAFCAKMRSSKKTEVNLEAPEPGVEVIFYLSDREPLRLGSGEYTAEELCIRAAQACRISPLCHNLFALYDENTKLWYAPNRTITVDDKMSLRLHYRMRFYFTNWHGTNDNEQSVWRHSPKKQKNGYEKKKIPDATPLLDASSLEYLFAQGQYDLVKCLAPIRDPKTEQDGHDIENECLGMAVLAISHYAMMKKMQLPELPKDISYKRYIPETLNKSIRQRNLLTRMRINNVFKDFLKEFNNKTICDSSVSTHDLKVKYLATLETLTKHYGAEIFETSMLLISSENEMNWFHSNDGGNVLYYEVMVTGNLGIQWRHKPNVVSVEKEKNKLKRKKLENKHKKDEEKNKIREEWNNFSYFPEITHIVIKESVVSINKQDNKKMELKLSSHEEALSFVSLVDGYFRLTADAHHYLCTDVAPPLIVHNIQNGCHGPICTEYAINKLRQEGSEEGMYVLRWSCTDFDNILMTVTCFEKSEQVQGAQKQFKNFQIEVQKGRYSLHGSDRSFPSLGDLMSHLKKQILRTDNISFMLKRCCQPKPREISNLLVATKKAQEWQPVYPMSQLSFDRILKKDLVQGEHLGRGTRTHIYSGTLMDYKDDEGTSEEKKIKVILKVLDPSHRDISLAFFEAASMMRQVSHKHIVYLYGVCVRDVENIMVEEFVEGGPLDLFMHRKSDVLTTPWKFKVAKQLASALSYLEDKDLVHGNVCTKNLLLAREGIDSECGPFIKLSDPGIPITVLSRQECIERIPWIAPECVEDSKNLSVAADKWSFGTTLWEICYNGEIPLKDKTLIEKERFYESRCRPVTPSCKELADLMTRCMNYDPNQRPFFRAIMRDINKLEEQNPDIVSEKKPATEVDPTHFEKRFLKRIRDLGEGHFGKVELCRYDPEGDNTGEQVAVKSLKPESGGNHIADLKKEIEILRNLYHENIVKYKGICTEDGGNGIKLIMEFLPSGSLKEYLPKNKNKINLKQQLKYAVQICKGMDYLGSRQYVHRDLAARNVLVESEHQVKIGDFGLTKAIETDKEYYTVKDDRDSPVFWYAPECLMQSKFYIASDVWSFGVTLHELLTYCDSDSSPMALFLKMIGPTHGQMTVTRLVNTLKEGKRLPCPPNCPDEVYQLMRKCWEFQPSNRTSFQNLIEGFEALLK
Chain of JAK2 (O60674 whole entry): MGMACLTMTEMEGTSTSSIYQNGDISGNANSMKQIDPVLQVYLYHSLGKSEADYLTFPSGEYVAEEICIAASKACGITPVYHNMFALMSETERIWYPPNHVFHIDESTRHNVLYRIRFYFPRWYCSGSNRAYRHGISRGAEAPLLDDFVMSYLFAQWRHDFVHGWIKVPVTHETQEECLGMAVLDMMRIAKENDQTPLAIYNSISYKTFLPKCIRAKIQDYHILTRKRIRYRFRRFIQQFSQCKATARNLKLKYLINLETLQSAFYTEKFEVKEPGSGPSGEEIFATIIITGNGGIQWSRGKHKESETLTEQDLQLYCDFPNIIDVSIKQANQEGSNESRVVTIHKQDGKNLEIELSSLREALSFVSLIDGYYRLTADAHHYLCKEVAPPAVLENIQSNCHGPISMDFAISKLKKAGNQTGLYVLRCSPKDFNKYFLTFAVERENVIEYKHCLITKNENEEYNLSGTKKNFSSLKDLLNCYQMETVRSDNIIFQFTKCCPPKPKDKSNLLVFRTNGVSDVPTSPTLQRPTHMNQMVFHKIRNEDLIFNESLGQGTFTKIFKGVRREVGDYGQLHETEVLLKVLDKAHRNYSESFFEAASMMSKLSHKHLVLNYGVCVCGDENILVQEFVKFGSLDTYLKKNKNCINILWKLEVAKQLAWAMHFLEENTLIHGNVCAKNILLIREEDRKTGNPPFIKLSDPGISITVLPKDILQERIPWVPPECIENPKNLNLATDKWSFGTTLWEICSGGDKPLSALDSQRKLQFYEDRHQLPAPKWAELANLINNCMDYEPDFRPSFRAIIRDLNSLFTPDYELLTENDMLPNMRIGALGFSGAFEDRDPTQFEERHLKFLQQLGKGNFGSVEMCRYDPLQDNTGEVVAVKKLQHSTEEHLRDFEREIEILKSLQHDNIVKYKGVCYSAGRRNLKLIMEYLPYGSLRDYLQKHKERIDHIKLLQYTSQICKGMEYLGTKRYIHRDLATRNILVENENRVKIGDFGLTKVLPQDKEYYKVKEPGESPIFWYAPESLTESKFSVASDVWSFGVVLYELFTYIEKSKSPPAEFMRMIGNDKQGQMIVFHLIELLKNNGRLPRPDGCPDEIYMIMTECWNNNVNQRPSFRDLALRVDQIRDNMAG

Row | Compound | JAK2 pKi [1] | Compound Remaining at 60 min (%) [2] [%] | microsomal CLint at 1 µM [2] [µL/min/mg] | Sulfate Appearance [2] | Tyk2 pKi [3] | IC50 [4] [nM] | IC50 [5] [nM] | binding site in co-crystal structure [6]
1 | CCc1cc(O)ccc1-c1ccc2c(-c3nc4c([nH]3)CN(C)[C@H](C(=O)N3CCN(C)C[C@@H]3C)C4)n[nH]c2c1 [Compound 3, ((S)-2,4-dimethylpiperazin-1-yl)((S)-2-(6-(2-ethyl-4-hydroxyphenyl)-1H-indazol-3-yl)-5-methyl-4,5,6,7-tetrahydro-3H-imidazo[4,5-c]pyridin-6-yl)methanone] | 10.4 | 86 | 2.6 | Yes | 9.3 | – | – | –
2 | CCc1cc(O)c(F)cc1-c1ccc2c(-c3nc4c([nH]3)CN(C(C)C)[C@H](C(=O)N3CC[C@H](N(C)C)C3)C4)n[nH]c2c1 [Compound C-6, reference compound] | – | 5 | 51.4 | Yes | – | 158 | 2.51 | –
3 | CCc1cc(O)c(F)cc1-c1ccc2c(-c3nc4c([nH]3)CN(C(C)C)[C@H](C(=O)N3CC(N(C)C)C3)C4)n[nH]c2c1 [Compound D-1, (S)-(3-(dimethylamino)azetidin-1-yl)(2-(6-(2-ethyl-5-fluoro-4-hydroxyphenyl)-1H-indazol-3-yl)-5-isopropyl-4,5,6,7-tetrahydro-3H-imidazo[4,5-c]pyridin-6-yl)methanone] | – | – | – | – | – | – | – | bind in the ATP binding site
